One compound from patent US10155004B2, “17-hydroxy-17-pentafluoroethyl-estra-4,9(10)-dien-11-aryl derivatives, method of production thereof and use thereof for the treatment of diseases” (BAYER INTELLECTUAL PROPERTY GMBH, priority 2009, dated 2018) can be followed below.

Data set [1] concerns pregnant rats. Put plainly: Abortion test on female rats (termination of early pregnancy). It is filed as in vivo, rat. The note with it: d5-d7 p.c., autopsy d9 p.c. As to the method:
EXAMPLE 17 ABORTION TEST ON FEMALE RATS
The action of progesterone and of the progesterone receptor is a fundamental precondition for successful pregnancy or gestation in mammals. The progesterone-antagonistic action of the compounds according to the invention was tested on pregnant rats (6 rats per group) on day 5 to 7 post coitum with conventional housing and feeding conditions.
After successful hand mating, the pregnant animals (presence of sperm in the vaginal smear on day 1 of pregnancy=d1 p.c.) were randomized and divided into the treatment group and the control group. The animals then each received subcutaneously or orally 0.15; 0.5; 1.5 or 5 mg/kg of the test compound or 1.0 ml/kg of vehicle (benzyl benzoate/castor oil: 1+4 [v/v]) daily from day 5 to day 7 (d5-d7 p.c.).
Autopsy was carried out on day 9 (d9 p.c.). As a characteristic of progesterone receptor antagonistic action, the uterus was examined for the presence of nidation sites. Complete absence, or also the presence of pathological, haemorrhagic or otherwise abnormal nidation sites on day 9 (d9 p.c.) was assessed as abortion.

Data set [2] deals with T1, human progesterone receptor B (Homo sapiens, UniProt P06401).
T1 construct: expressed in transfected cells; host or cells: SK-N-MC human neuroblastoma cells, stably transfected
T1 sequence (P06401 1-933): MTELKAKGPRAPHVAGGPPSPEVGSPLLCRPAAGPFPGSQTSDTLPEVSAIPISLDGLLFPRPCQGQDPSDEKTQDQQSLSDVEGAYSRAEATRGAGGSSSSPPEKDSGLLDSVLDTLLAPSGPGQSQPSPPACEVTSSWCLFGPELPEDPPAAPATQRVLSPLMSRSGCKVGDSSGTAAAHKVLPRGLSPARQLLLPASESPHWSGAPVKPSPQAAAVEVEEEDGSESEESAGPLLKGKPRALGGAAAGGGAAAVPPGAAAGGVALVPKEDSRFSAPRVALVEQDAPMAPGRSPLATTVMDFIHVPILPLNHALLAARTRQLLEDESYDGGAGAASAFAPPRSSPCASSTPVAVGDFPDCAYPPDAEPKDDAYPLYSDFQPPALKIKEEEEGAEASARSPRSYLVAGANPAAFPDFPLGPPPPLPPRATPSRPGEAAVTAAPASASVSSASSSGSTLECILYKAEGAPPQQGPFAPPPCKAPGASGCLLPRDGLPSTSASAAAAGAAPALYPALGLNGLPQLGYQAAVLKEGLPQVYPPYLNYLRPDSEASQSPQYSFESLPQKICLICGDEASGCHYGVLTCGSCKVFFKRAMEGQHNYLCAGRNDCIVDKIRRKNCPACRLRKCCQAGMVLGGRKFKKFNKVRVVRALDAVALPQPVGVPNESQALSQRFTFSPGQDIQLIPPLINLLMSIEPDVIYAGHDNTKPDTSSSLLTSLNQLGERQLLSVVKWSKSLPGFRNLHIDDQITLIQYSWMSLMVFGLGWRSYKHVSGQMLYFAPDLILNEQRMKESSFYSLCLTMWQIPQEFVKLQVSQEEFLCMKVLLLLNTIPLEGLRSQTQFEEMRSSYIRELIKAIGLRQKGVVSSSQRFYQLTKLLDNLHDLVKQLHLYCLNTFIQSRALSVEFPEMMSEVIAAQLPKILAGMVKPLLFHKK
The data set is described as follows: Progesterone receptor-antagonistic action in stably transfected SK-N-MC cells, MTV-LUC reporter (PR-B). The note with it: antagonistic efficacy vs 0.1 nmol/l promegestone. It counts as cell-based. On the procedure:
EXAMPLE 16 PROGESTERONE RECEPTOR-ANTAGONISTIC ACTION IN STABLE TRANSFECTANTS OF HUMAN NEUROBLASTOMA CELLS (SK-N-MC CELLS) WITH THE HUMAN PROGESTERONE A OR PROGESTERONE B RECEPTOR AND AN MTV-LUC REPORTER CONSTRUCT
SK-N-MC cells (human neuroblastoma cells), which have been stably transfected with plasmids, which express the human progesterone receptor B (pRChPR-B-neo) or the human progesterone receptor A (pRChPR-A-neo) and a reporter construct (pMMTV-LUC), were incubated for 24 hours either in the absence (negative control) or in the presence of increasing amounts of the respective test compound (0.01 nmol/l, 0.1 nmol/l 1 nmol/l, 10 nmol/l, 100 nmol/l and 1 μmol/l), in order to determine the agonistic efficacy. As positive control of reporter gene induction, the cells were treated with the synthetic gestagen promegestone (0.01 nmol/l, 0.1 nmol/l, 1 nmol/l, 10 nmol/l, 100 nmol/l and 1 μmol/l). For determination of the antagonistic activity, the cells were treated with 0.1 nmol/1 promegestone and additionally with increasing amounts of the respective test compound (0.01 nmol/l, 0.1 nmol/l, 1 nmol/l, 10 nmol/l, 100 nmol/l and 1 μmol/l). The activity of the LUC reporter gene (LUC=luciferase) was determined in the cell lysates and was measured as RLU (relative light units). All measured values are given as percentage efficacy and as EC50 or IC50 concentrations.
11β-(4-Acetylphenyl)-20,20,21,21,21-pentafluoro-17-hydroxy-19-nor-17α-pregna-4,9-dien-3-one and 20,20,21,21,21-pentafluoro-17-hydroxy-11β-[4-(hydroxyacetyl)phenyl]-19-nor-17α-pregna-4,9-dien-3-one, very potent and therefore preferred examples from WO98/34947 and WO2008/058767, were tested as comparative compounds along with the test compound.

Data set [3] in a line: Chemical stability against temperature, light and oxidative stress. The note with it: compared with analogue with alkanoyl or hydroxyalkanoyl group. It counts as physicochemical.

SMILES strings stand for the structures.

On to `C[C@]12C[C@H](c3ccc(S(C)(=O)=O)cc3)C3=C4CCC(=O)C=C4CC[C@H]3[C@@H]1CC[C@@]2(O)C(F)(F)C(F)(F)F` [Example 4, (11β,17β)-17-Hydroxy-11-[4-(methylsulphonyl)phenyl]-17-(pentafluoroethyl)estra-4,9-dien-3-one], for which the Abortion rate in data set [1] (daily dose 0.15 mg/kg s.c. or p.o.) is reported as 40%; in data set [1] (daily dose 0.5 mg/kg s.c. or p.o.), 100%; in data set [1] (daily dose 1.5 mg/kg s.c. or p.o.), 100%; in data set [1] (daily dose 5.0 mg/kg s.c. or p.o.), 100%. Also, in data set [2], the “Progesterone receptor B (PR-B) Efficacy” value amounted to 100%. The oxidation sensitivity result in data set [3] is “surprisingly low oxidation sensitivity”. In addition, the “stability under the influence of UV light” value in data set [3] is “surprisingly high stability”. Moreover, the “stability under thermal load” value in data set [3] was “surprisingly high stability under thermal load”.
